# Several values for one entry are separate records, joined by “and”; a condition that tells them apart may be missing. Equal values may be shown once.
# Tested on: lymphocyte cells
# Assay: 4CmC-induced adenosine/inosine in human peripheral blood lymphocytes, HPLC (Example 1)
# Assay type: cell-based
# Conditions: for 4CmC response (adenosine plus inosine) in MHS group relative to MHN or normal groups: EHNA 0.1 mM
# Protocol: FIG. 2 is a dose-response curve for 4-chloro-m-cresol (4CmC)-induced intracellular adenosine plus inosine in lymphocyte cells from malignant hyperthermia susceptible (MHS, n=11), not-susceptible (MHN, n=9), and normal (n=7) subjects. Lymphocyte cells were treated with 4CmC in the presence of an inhibitor of adenosine deaminase (EHNA, 0.1 mM). After purification, aliquot was analyzed for adenosine and inosine content using HPLC. Adenosine plus inosine values in the absence of 4CmC are plotted against X=0.02 mM to allow logarithmic display of the entire dose response curve. Adenosine plus inosine levels were normalized to reflect per 1 million cells. 4CmC responses at 1, 2, and 5 mM on MHS groups are about 4, 4, and 6 fold higher than the corresponding values in MI-1N or normal groups with values of 6×10^−5, 8×10^−5, and […], respectively. There were no overlaps between the MHS group and the MHN or normal groups.
# Lymphocyte cells from MHS (n=11), MHN (n=9) and normal (n=7) subjects were suspended in normal HBSS plus 0.1% BSA and treated with adenosine deaminase inhibitor (EHNA, 0.1 mM). After 10 minutes of incubation at 37° C., cells were treated with HBSS, with and without the RyR1 agonist 4CmC (5 mM) and incubated at 37° C. for an additional 45 minutes. After termination and purification of the samples, aliquots (50 μl) were assayed in duplicate for adenosine and inosine content using HPLC. Concentrations are normalized to per 1 million cells. The sum of the adenosine plus inosine level is about 6-fold higher than corresponding values in normal and MHN cells.
# Pilot studies were conducted using blood samples from human subjects in the following groups: Group 1: MHS subjects with positive CHCT and/or having a known MH associated mutation (n=11); Group 2: non-MH susceptible with negative CHCT results (MHN) (n=9), and Group 3: normal subjects who had not undergone CHCT and had no family history of MH (n=7).
# Briefly, venous blood samples (20 ml) were drawn from patients using heparinized blood collection tubes. Peripheral blood lymphocyte cells were isolated from whole blood by the Ficoll-Hypaque centrifugation technique. Briefly, diluted anti-coagulated blood is layered over Ficoll-Hypaque and centrifuged. Mononuclear cells consisting of lymphocytes and some monocytes are recovered at the interface. The cells were washed with the Flanks' balanced salt solution (HBSS) buffer, re-suspended in the HBSS buffer, and treated with different concentration of 4CmC at 37° C. in the presence and/or absence of inhibitor of adenosine deaminase erythro-9-(2-hydroxy-3-nonyl)adenine (EHNA) for about 30 minutes. The cells were then purified by adding an equal volume of 6% HClO4 and centrifuged at 6000 rpm for 10 minutes. Aliquots of the supernatant were analyzed for adenosine and inosine content with HPLC using a Waters Separation Module (Model 2695) equipped with Waters Photodiode Array Detector and Empower software.
smiles,measurement,setting,value
"Cc1cc(O)ccc1Cl [4CmC, 4-chloro-m-cresol]",4CmC response (adenosine plus inosine) in MHS group relative to MHN or normal groups,1 mM 4CmC,about 4 fold
same,4CmC response (adenosine plus inosine) in MHS group relative to MHN or normal groups,2 mM 4CmC,about 4 fold
same,stimulation of adenosine plus inosine formation in control and MHN samples,5 mM 4CmC (maximum effective dose),"did not, or minimally stimulated"
same,stimulation of nucleosides formation by 4CmC in MHS samples,"5 mM 4CmC, FIG. 3",~6 fold
same,"adenosine plus inosine level after 4CmC treatment, mean±SEM","5 mM 4CmC, MHN group (n=9)",5.4 ± 0.6 µM
same,"adenosine plus inosine level after 4CmC treatment, mean±SEM","5 mM 4CmC, MHS group (n=11)",35.6 ± 3.1 µM
same,"adenosine plus inosine level after 4CmC treatment, mean±SEM","5 mM 4CmC, normal group (n=7)",5.6 ± 1 µM
same,[Adenosine] μM Post 5 mM 4CmC,"lymphocytes of single normal subjects, 5 mM 4CmC",0.220 µM and 0.144 µM and 0.246 µM and 0.154 µM and 0.276 µM and 0.177 µM and 0.268 µM
same,4CmC concentration at which inosine release reaches saturation,without EHNA,about 5 mM
same,4CmC concentrations that stimulate inosine release dose-dependently,without EHNA,above 1 mM
same,effect of 4CmC on adenosine formation,without adenosine deaminase inhibitor,not affected

# From patent US8846330B2, “Methods and kits for the diagnosis of RyR1-related diseases” (The Henry M. Jackson Foundation for the Advancement of …, priority 2008, dated 2014)
